In paper PMC11428108 (Frontiers in Molecular Neuroscience, 2024):
Where a name gives a salt, the structure may show the parent alone.

Experiments:
people = system: people; parameters: method as in Knight et al., 2009; conditions: placebo approximately 9%; ref Knight et al., 2009; cited from earlier work
rats = system: rats; parameters: method as in Maurer et al., 2017; conditions: ref Maurer et al., 2017; cited from earlier work
α4β2* nAChRs = system: α4β2* nAChRs; parameters: method as in earlier work; conditions: agonist-induced signaling; ref Wang et al., 2015; Grupe et al., 2013; Appiani et al., 2024; Jin et al., 2014; read-out: EC50 on α4β2* nAChR signaling; cited from earlier work
[1] = biological target: human (α4)2(β2)2β2/α4 (α4β2*) nAChRs (Homo sapiens, UniProt P17787+P43681); assay: FLEXstation membrane potential assay in HEK cells stably expressing α4β2* nAChRs; assay type: cell-based; conditions: nicotine 0.001–50 μM, ±SEM
Sequence of human (α4)2(β2)2β2/α4 (α4β2*) nAChRs (P43681 27-627): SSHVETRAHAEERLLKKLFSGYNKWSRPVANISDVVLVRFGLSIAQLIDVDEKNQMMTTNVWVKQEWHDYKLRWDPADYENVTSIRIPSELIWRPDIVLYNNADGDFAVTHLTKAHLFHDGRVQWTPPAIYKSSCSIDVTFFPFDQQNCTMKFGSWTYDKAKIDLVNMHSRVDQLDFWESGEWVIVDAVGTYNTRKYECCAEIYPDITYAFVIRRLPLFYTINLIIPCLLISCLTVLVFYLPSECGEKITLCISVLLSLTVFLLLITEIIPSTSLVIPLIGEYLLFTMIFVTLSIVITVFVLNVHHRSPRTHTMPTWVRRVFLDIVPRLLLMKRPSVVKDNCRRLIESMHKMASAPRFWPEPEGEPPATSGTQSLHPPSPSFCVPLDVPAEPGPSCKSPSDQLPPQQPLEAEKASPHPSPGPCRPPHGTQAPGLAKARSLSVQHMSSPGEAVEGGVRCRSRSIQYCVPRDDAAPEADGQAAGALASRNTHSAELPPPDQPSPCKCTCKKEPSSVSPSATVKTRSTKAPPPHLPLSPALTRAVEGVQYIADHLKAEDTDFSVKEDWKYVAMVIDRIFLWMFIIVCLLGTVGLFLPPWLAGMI
Sequence of human (α4)2(β2)2β2/α4 (α4β2*) nAChRs (P17787 26-502): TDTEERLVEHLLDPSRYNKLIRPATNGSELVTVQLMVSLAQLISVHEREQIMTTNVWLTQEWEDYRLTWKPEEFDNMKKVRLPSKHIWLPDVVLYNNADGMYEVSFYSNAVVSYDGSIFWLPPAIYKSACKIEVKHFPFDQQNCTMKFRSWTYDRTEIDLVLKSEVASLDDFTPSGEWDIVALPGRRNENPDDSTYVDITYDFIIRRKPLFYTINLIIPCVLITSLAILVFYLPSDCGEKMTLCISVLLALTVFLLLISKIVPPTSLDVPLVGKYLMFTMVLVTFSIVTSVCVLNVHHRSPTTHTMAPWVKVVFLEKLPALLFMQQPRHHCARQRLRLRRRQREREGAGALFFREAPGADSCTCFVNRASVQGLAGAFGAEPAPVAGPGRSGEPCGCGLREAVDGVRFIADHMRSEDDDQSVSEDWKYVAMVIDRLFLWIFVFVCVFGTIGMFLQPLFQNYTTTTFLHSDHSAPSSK
From the text: (§1) Human embryonic kidney (HEK) cell lines stably expressing human (α4)2(β2)2β2/α4 (α4β2*) nAChRs, (α4)2(β2)2α5 nAChRs, (α4)2(β2)2β3 nAChRs, (α3)2(β4)2α3/β4 (α3β4*) nAChRs, (α3)2(β2)2α3/β2 (α3β2*) nAChRs, (α3)2(β4)2α5 nAChRs, or (α3)2(β2)2α5 nAChRs were maintained as described previously ([Wang et al., 2015]; [Kuryatov et al., 2005]; [Caligiuri et al., 2022]). The FLEXstation bench top scanning fluorometer from Molecular Devices was used to assay nAChR function in these cells, according to published protocols ([Wang et al., 2015]; [Kuryatov et al., 2005]). The membrane potential kit (Molecular Devices) was used according to the manufacturer’s protocols. Serial dilutions of SR9883 were manually added to the assay plate 15 min prior to recording. […] Compound dilutions were prepared in V-shaped 96-well plates (Fisher Scientific Co.) and added to cell culture wells at a rate of 20 μL s^−1 during recording. Cells were incubated at 29°C for 6–20 h prior to assays to upregulate nAChRs ([Wang et al., 2015]; [Kuryatov et al., 2005]). Data points were averaged from 3 to 4 responses from separate wells. Potency and efficacy were calculated using the Hill equation as described previously ([Wang et al., 2015]).
(§2) Concentration-response curves of SR9883 actions in nAChR-expressing HEK cells and oocytes were fitted to the Hill equation using a nonlinear least squares curve fit method and efficacy and potency values were calculated as previously described ([Wang et al., 2015]). Plasma and brain levels of SR9983 after oral administration were compared using a two-tailed paired t test. […] For the ICSS threshold experiment, percentages of baseline reward threshold scores were calculated by expressing the absolute threshold scores as a percentage of the scores obtained during baseline. The baseline values were the mean thresholds on the three sessions prior to drug injections. Response latency data were analyzed in the same manner as the threshold data. […] Effects of SR9883 on responding for food pellets in rats was analyzed by a two-tailed paired t test. […] Significant main or interaction effects in ANOVAs were followed by Bonferroni or Newman–Keuls post-hoc tests as appropriate. All statistical analyses were performed using GraphPad Prism software with α set to 0.05.

[2] = biological target: T1, human (α4)2(β2)2α5 nAChRs (Homo sapiens, UniProt P17787+P30532+P43681); assay: FLEXstation membrane potential assay in HEK cells stably expressing (α4)2(β2)2α5 nAChRs; assay type: cell-based; conditions: nicotine 0.001–50 μM, ±SEM
T1 construct: expressed in transfected cells
T1 sequence (P43681 29-627 limits assumed): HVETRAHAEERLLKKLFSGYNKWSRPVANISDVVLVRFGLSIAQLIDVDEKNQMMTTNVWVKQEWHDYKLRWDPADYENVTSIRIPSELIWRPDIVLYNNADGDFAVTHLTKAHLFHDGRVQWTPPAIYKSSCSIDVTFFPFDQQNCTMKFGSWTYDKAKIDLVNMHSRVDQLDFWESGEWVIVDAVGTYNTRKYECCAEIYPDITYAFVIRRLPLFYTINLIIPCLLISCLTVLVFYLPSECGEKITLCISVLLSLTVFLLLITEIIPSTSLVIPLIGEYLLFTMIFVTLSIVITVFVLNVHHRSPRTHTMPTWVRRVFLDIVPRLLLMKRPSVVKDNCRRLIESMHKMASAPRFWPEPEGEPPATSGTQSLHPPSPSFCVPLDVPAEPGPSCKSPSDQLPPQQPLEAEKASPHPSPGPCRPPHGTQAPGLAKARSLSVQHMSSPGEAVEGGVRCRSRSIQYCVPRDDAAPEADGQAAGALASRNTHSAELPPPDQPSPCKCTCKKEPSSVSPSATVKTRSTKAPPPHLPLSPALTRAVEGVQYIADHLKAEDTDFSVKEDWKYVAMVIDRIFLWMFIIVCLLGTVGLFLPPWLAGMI
T1 sequence (P17787 26-502): as the sequence (P17787 26-502) above
T1 sequence (P30532 23-468): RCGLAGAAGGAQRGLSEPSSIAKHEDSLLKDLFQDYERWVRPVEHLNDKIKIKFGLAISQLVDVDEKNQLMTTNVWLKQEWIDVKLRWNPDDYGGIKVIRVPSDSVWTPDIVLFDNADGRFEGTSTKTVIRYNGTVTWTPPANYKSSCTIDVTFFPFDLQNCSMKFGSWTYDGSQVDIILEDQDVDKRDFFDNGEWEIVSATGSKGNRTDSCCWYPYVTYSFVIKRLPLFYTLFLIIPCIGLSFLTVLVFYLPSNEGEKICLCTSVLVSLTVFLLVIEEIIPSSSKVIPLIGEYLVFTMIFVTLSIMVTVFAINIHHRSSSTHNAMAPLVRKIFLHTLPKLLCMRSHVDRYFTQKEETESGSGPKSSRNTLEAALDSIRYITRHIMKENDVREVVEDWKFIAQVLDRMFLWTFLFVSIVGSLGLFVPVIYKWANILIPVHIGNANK
From the text: as §1, §2

SMILES: c1cnc2cc3c(cc2n1)[C@@H]1CNC[C@H]3C1 [Chantix, varenicline]
- People remaining abstinent after 1 year of a quit attempt (people): approximately 23%

SMILES: N#Cc1cccc(-c2nc(-c3cccnc3)no2)c1 [NS9283, 3-[3-(3-pyridyl)-1,2,4-oxadiazol-5-yl]benzonitrile]
- Intravenous nicotine self-administration behavior (rats): decrease
- EC50 (α4β2* nAChRs): ~1000 nM

SMILES: CC(NC(C)(C)C)C(=O)c1cccc(Cl)c1 (stereo not drawn) [Zyban, bupropion]
- People remaining abstinent after 1 year of a quit attempt (people): ~16%

SMILES: CN1CCC[C@H]1c1cccnc1 [nicotine, (−)-Nicotine hydrogen tartrate salt, reference compound]
- Efficacy ([1]; +SR9883 (10 μM)): 87.20 ± 1.68%
- nHill of nicotine ([1]; +SR9883 (10 μM)): 1.0749 ± 0.0928
- Efficacy ([1]; −SR9883): 96.89 ± 2.82%
- nHill of nicotine ([1]; −SR9883): 0.8145 ± 0.0740
- Efficacy ([2]; +SR9883 (10 μM)): 92.69 ± 2.19%
- nHill of nicotine ([2]; +SR9883 (10 μM)): 1.2934 ± 0.1439
- Efficacy ([2]; −SR9883): 100.49 ± 3.89%
- nHill of nicotine ([2]; −SR9883): 0.7395 ± 0.0767
